Source: ChEMBL document CHEMBL1132139, “2-Naphthylcarbapenems: broad spectrum antibiotics with enhanced potency against MRSA” (1999)
Values after ≈ are worked out from the molar mass of the structure shown.

What was measured:
Staphylococcus aureus [1] = experiment: Compound was evaluated for the antibacterial activity against methicillin-sensitive Staphylococcus aureus (MSSA)as fold improvement in activity with respect to imipenem.; type: functional
Pseudomonas aeruginosa [2] = experiment: Compound was evaluated for the antibacterial activity against Pseudomonas aeruginosa as fold improvement in activity with respect to imipenem.; type: functional
Staphylococcus aureus [3] = experiment: Compound was evaluated for the antibacterial activity against methicillin-resistant Staphylococcus aureus (MRSA)as fold improvement in activity with respect to imipenem.; type: functional
Enterobacter [4] = experiment: Compound was evaluated for the antibacterial activity against Enterobacter as fold improvement in activity with respect to imipenem.; type: functional
Proteus [5] = experiment: Compound was evaluated for the antibacterial activity against Proteus as fold improvement in activity with respect to imipenem.; type: functional, Proteus sp.
Escherichia coli [6] = experiment: Compound was evaluated for the antibacterial activity against Escherichia coli as fold improvement in activity with respect to imipenem.; type: functional
Enterococcus [7] = experiment: Compound was evaluated for the antibacterial activity against Enterococcus as fold improvement in activity with respect to imipenem.; type: functional
[8] = Compound was evaluated for the antibacterial activity against methicillin-resistant coagulase-negative staphylococci (MRCNS)as fold improvement in activity with respect to imipenem.; type: functional, Staphylococcus […]
[9] = biological target: T1, Dipeptidase 1 (Sus scrofa) (UniProt P22412); experiment: Dehydropeptidase-1 susceptibility.
T1 sequence (whole entry): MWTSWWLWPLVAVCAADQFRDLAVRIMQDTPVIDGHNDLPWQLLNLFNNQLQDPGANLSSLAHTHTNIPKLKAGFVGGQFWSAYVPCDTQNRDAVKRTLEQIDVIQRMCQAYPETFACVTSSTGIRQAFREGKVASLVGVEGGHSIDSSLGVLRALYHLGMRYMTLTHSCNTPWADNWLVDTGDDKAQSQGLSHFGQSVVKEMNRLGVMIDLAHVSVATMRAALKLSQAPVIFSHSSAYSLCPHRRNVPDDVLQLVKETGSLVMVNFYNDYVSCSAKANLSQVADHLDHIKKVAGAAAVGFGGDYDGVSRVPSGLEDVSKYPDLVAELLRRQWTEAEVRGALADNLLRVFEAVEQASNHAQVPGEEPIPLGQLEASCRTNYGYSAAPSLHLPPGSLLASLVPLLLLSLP

Klebsiella [10] = experiment: Compound was evaluated for the antibacterial activity against Klebsiella.8 as fold improvement in activity with respect to imipenem.; type: functional
Serratia [11] = experiment: Compound was evaluated for the antibacterial activity against Serratia as fold improvement in activity with respect to imipenem.; type: functional
Klebsiella [12] = experiment: Compound was evaluated for the antibacterial activity against Klebsiella as fold improvement in activity with respect to imipenem.; type: functional
Staphylococcus aureus [13] = experiment: Compound was evaluated for the anti-MRSA activity as MIC90.; type: functional
[14] = tested on: coagulase-negative Staphylococcus; experiment: Compound was evaluated for the anti-MRCNS activity as MIC50.
Staphylococcus aureus [15] = experiment: Compound was evaluated for the anti-MRSA activity as MIC50; type: functional
Staphylococcus aureus [16] = experiment: Compound was evaluated for the antibacterial activity against methicillin-resistant coagulase-negative staphylococci (MRCNS).; type: functional
Proteus [17] = experiment: Compound was evaluated for the antibacterial activity against Proteus; type: functional, Proteus sp.
Serratia [18] = experiment: Compound was evaluated for the antibacterial activity against Serratia.; type: functional
Enterobacter [19] = experiment: Compound was evaluated for the antibacterial activity against Enterobacter.; type: functional
Enterococcus [20] = experiment: Compound was evaluated for the antibacterial activity against Enterococcus.; type: functional
Staphylococcus aureus [21] = experiment: Compound was evaluated for the antibacterial activity against methicillin-sensitive Staphylococcus aureus (MSSA).; type: functional
Klebsiella [22] = experiment: Compound was evaluated for the antibacterial activity against Klebsiella.8.; type: functional
Escherichia coli [23] = experiment: Compound was evaluated for the antibacterial activity against Escherichia coli.; type: functional
Pseudomonas aeruginosa [24] = experiment: Compound was evaluated for the antibacterial activity against Pseudomonas aeruginosa.; type: functional
Staphylococcus aureus [25] = experiment: Compound was evaluated for the antibacterial activity against methicillin-resistant Staphylococcus aureus (MRSA).; type: functional

SMILES | Activity (Staphylococcus aureus [1]) | Activity (Pseudomonas aeruginosa [2]) | Activity (Staphylococcus aureus [3]) | Activity (Enterobacter [4]) | Activity (Proteus [5]) | Activity (Escherichia coli [6]) | Activity (Enterococcus [7]) | Activity [8] | Activity [9] | Activity (Klebsiella [10]) | Activity (Serratia [11]) | MIC90 (Staphylococcus aureus [13]) [µg/mL] | MIC50 [14] [µg/mL] | MIC50 (Staphylococcus aureus [15]) [µg/mL] | also measured
C[C@@H](O)[C@H]1C(=O)N2C(C(=O)[O-])=C(c3cc(C[n+]4cccc(N)c4)c4ccccc4c3)C[C@H]12 | 0.39 | 0.01 | 6.9 | 0.02 | 0.13 | 0.09 | 3.2 | 12 | 0.01 | 0.01 | 0.03 |  |  |  | 
C[C@@H](O)[C@H]1C(=O)N2C(C(=O)[O-])=C(c3ccc4c(C[n+]5ccc(N)cc5)cccc4c3)C[C@H]12 | 0.42 | 0.02 | 12 | 0.18 | 15 | 0.4 | 2.7 | 77 | 0.03 | 0.21 | 0.69 |  |  |  | 
CC(O)C1C(=O)N2C(C(=O)O)=C(c3ccc4ccccc4c3)CC12 (configuration not stated) | 0.5 | 0.01 | 3.3 | 0.1 | 2.8 | 0.31 | 2.6 | 2.7 | 0.09 | 0.08 | 0.09 |  |  |  | 
C[C@H](O)[C@H]1C(=O)N2C(C(=O)[O-])=C(c3cc(C[n+]4ccc(N)cc4)c4ccccc4c3)C[C@H]12 | 0.42 | 0.01 | 11 | 0.02 | 0.19 | 0.06 | 2.2 | 24 | 0.01 | 0.02 | 0.02 |  |  |  | 
C[C@@H](O)[C@H]1C(=O)N2C(C(=O)[O-])=C(c3ccc4cc(C[n+]5cccc(N)c5)ccc4c3)C[C@H]12 | 0.53 | 0.02 | 13 | 0.64 | 6.5 | 1.3 | 2.3 | 44 | 0.15 | 0.43 | 3 |  |  |  | 
C[C@H](O)[C@H]1C(=O)N2C(C(=O)[O-])=C(c3cc(C[n+]4ccccc4N)c4ccccc4c3)C[C@H]12 | 0.13 | 0.01 | 1.4 | 0.01 | 0.1 | 0.04 | 2.2 | 1.9 | 0.01 | 0.02 | 0.02 |  |  |  | 
C[C@@H](O)[C@H]1C(=O)N2C(C(=O)[O-])=C(c3ccc4cccc(C[n+]5ccccc5N)c4c3)C[C@H]12 | 0.1 | 0.02 | 4.9 | 0.01 | 0.22 | 0.04 | 2.1 | 8 | 0 | 0.03 | 0.05 |  |  |  | 
C[C@@H](O)[C@H]1C(=O)N2C(C(=O)[O-])=C(c3ccc4cc(C[n+]5ccc(N)cc5)ccc4c3)C[C@H]12 | 0.45 | 0.02 | 18 | 0.92 | 10 | 1.4 | 2.7 | 77 | 0.26 |  | 1.8 | 8 (≈ 18.6 µM) | 8 (≈ 18.6 µM) | 4 (≈ 9.31 µM) | Activity (Klebsiella [12]): 0.4
C[C@@H](O)[C@H]1C(=O)N2C(C(=O)[O-])=C(c3ccc4cc(C[n+]5ccccc5N)ccc4c3)C[C@H]12 | 0.39 | 0.02 | 28 | 0.85 | 5 | 1.4 | 4.4 | 323 | 0.2 | 0.38 | 2 | 4 (≈ 9.31 µM) | 8 (≈ 18.6 µM) | 2 (≈ 4.66 µM) | 
C[C@@H](O)[C@H]1C(=O)N2C(C(=O)O)=C(SCCNC=N)C[C@H]12 [IMIPENEM ANHYDROUS] |  |  |  |  |  |  |  |  | 1 |  |  | 64 (≈ 214 µM) | 128 (≈ 428 µM) | 32 (≈ 107 µM) | MIC (Staphylococcus aureus [16]): 70 µg/mL (≈ 234 µM); MIC (Proteus [17]): 0.69 µg/mL (≈ 2.3 µM); MIC (Serratia [18]): 0.29 µg/mL (≈ 0.969 µM); MIC (Enterobacter [19]): 0.18 µg/mL (≈ 0.601 µM); MIC (Enterococcus [20]): 1.8 µg/mL (≈ 6.01 µM); MIC (Staphylococcus aureus [21]): 0.01 µg/mL (≈ 0.0334 µM); MIC (Klebsiella [22]): 0.29 µg/mL (≈ 0.969 µM); MIC (Escherichia coli [23]): 0.19 µg/mL (≈ 0.635 µM); MIC (Pseudomonas aeruginosa [24]): 0.36 µg/mL (≈ 1.2 µM); MIC (Staphylococcus aureus [25]): 33 µg/mL (≈ 110 µM)
C[C@H](O)[C@H]1C(=O)N2C(C(=O)[O-])=C(c3cccc(-c4ccc(C[n+]5ccccc5N)cc4)c3)C[C@H]12 | 0.43 | 0.01 | 154 | 0.04 | 0.38 | 0.11 | 6.2 | 232 | 0.04 | 0.04 | 0.11 | 2 (≈ 4.39 µM) | 2 (≈ 4.39 µM) | 1 (≈ 2.2 µM) | 
C[C@@H](O)[C@H]1C(=O)N2C(C(=O)[O-])=C(c3ccc4cccc(C[n+]5ccc(N)cc5)c4c3)C[C@H]12 | 0.15 | 0.01 | 20 | 0.03 | 0.48 | 0.09 | 2.4 | 40 | 0.01 | 0.04 | 0.07 | 8 (≈ 18.6 µM) | 16 (≈ 37.3 µM) | 8 (≈ 18.6 µM) | 
C[C@@H](O)[C@H]1C(=O)N2C(C(=O)[O-])=C(c3ccc(C[n+]4ccccc4N)cc3)C[C@H]12 | 0.5 | 0.02 | 2 | 3 | 4.2 | 1.7 | 12.9 | 1.6 | 0.11 | 1.1 | 4.4 |  |  |  | 
C[C@@H](O)[C@H]1C(=O)N2C(C(=O)[O-])=C(c3ccc4ccc(C[n+]5ccc(N)cc5)cc4c3)C[C@H]12 | 0.53 | 0.01 | 16 | 0.17 | 3.2 | 0.33 | 4.9 | 55 | 0.07 | 0.25 | 0.97 |  |  |  | 
CN[C@H](CC(C)C)C(=O)N[C@H]1C(=O)N[C@@H](CC(N)=O)C(=O)N[C@H]2C(=O)N[C@H]3C(=O)N[C@H](C(=O)N[C@H](C(=O)O)c4cc(O)cc(O)c4-c4cc3ccc4O)[C@H](O)c3ccc(c(Cl)c3)Oc3cc2cc(c3O[C@@H]2O[C@H](CO)[C@@H](O)[C@H](O)[C@H]2O[C@H]2C[C@](C)(N)[C@H](O)[C@H](C)O2)Oc2ccc(cc2Cl)[C@H]1O [VANCOMYCIN] |  |  |  |  |  |  |  |  |  |  |  | 2 (≈ 1.38 µM) | 4 (≈ 2.76 µM) | 2 (≈ 1.38 µM) | 
